Source: patent publication US9090538B2, “Uses of esteramide compounds” (priority 2010, dated 2015)

Legend:
Type in all cases: physicochemical
Set-up in all cases: key: Crystal: When the formation of active crystals is observed, the term of <> is indicated; Limpid: When the solution remains limpid (absence of solid or cloudiness), it is the term of <> which is indicated
[1] = Visual observation at 25° C. of formulation of active in solvent
Experimental: (§1) Formulations were made by diluting various actives, reported below in the table, in the compounds 1-4 synthesized above.
1) Visual observation at 25° C.
The aspect of the formulation is noted and the presence of crystals is possibly located.
(§2) The actives used are commercially available.

[2] = Visual observation at 0° C. after 7 days (CIPAC MT39 test); conditions: 7 days at 0° C.
Experimental: as §1
2) Visual observation at 0° C.
The formulation is placed at 0° C. for 7 days and the aspect of the formulation is noted and the presence of crystals is possibly located (CIPAC MT39 test).
as §2

[3] = Visual observation at 0° C. with nucleation (crystal of pure active introduced, 7 more days at 0° C.); conditions: crystal of active added
Experimental: as §1
3) Visual observation at 0° C. with nucleation (by introducing a crystal of the pure active into the liquid)
A crystal of the active material is introduced into the formulation which has spent 7 days at 0° C. for nucleation, and the formulation is again placed for 7 days at 0° C. The aspect of the formulation is noted and the presence of crystals or the growth of the introduced crystal is possibly located.
as §2

[4] = active Alachlor 48% EC in the compound as solvent
[5] = active Azoxystrobine 25% EC in the compound as solvent
[6] = active Difenconazole 25% EC in the compound as solvent
[7] = active Dimethoate 40% EC in the compound as solvent
[8] = active Oxyfluorfen 22% EC in the compound as solvent
[9] = active Pendimethalin 33% EC in the compound as solvent
[10] = active Phenmedipham 16% EC in the compound as solvent
[11] = active Propanil 36% EC in the compound as solvent
[12] = active Propuxur 20% EC in the compound as solvent
[13] = active Tebuconazole 25% EC in the compound as solvent
[14] = active Trifluralin 40% EC in the compound as solvent
[15] = active alpha-Cypermethrin 10% EC in the compound as solvent
[16] = active Chlorpyrifos 40% EC in the compound as solvent

COC(=O)C(=O)N(C)C [Compound 1, methyl 2-(dimethylamino)-2-oxoacetate]
Aspect at 25° C. [1, 4]: Limpid
Aspect at 25° C. [1, 5]: Limpid
Aspect at 25° C. [1, 6]: Limpid
Aspect at 25° C. [1, 7]: Limpid
Aspect at 25° C. [1, 8]: Limpid
Aspect at 25° C. [1, 9]: Limpid
Aspect at 25° C. [1, 10]: Limpid
Aspect at 25° C. [1, 11]: Limpid
Aspect at 25° C. [1, 12]: Limpid
Aspect at 25° C. [1, 13]: Limpid
Aspect at 25° C. [1, 14]: Limpid
Aspect at 25° C. [1, 15]: Limpid
Aspect at 0° C. [2, 4]: Limpid
Aspect at 0° C. [2, 5]: Crystal
Aspect at 0° C. [2, 6]: Limpid
Aspect at 0° C. [2, 7]: Crystal
Aspect at 0° C. [2, 8]: Crystal
Aspect at 0° C. [2, 9]: Crystal
Aspect at 0° C. [2, 10]: Limpid
Aspect at 0° C. [2, 11]: Limpid
Aspect at 0° C. [2, 12]: Limpid
Aspect at 0° C. [2, 13]: Crystal
Aspect at 0° C. [2, 14]: Crystal
Aspect at 0° C. [2, 15]: Limpid
Aspect at 0° C. with nucleation [3, 4]: Limpid
Aspect at 0° C. with nucleation [3, 6]: Limpid
Aspect at 0° C. with nucleation [3, 10]: Limpid
Aspect at 0° C. with nucleation [3, 11]: Limpid
Aspect at 0° C. with nucleation [3, 12]: Limpid
Aspect at 0° C. with nucleation [3, 15]: Limpid

CCOC(=O)C(=O)N(C)C [Compound 2, ethyl 2-(dimethylamino)-2-oxoacetate]
Aspect at 25° C. [1, 4]: Limpid
Aspect at 25° C. [1, 5]: Limpid
Aspect at 25° C. [1, 16]: Limpid
Aspect at 25° C. [1, 6]: Limpid
Aspect at 25° C. [1, 7]: Limpid
Aspect at 25° C. [1, 8]: Limpid
Aspect at 25° C. [1, 9]: Limpid
Aspect at 25° C. [1, 10]: Limpid
Aspect at 25° C. [1, 11]: Limpid
Aspect at 25° C. [1, 12]: Limpid
Aspect at 25° C. [1, 13]: Limpid
Aspect at 25° C. [1, 14]: Limpid
Aspect at 25° C. [1, 15]: Limpid
Aspect at 0° C. [2, 4]: Limpid
Aspect at 0° C. [2, 5]: Crystal
Aspect at 0° C. [2, 16]: Limpid
Aspect at 0° C. [2, 6]: Limpid
Aspect at 0° C. [2, 7]: Limpid
Aspect at 0° C. [2, 8]: Limpid
Aspect at 0° C. [2, 9]: Crystal
Aspect at 0° C. [2, 10]: Limpid
Aspect at 0° C. [2, 11]: Limpid
Aspect at 0° C. [2, 12]: Crystal
Aspect at 0° C. [2, 13]: Crystal
Aspect at 0° C. [2, 14]: Limpid
Aspect at 0° C. [2, 15]: Limpid
Aspect at 0° C. with nucleation [3, 4]: Limpid
Aspect at 0° C. with nucleation [3, 16]: Limpid
Aspect at 0° C. with nucleation [3, 6]: Limpid
Aspect at 0° C. with nucleation [3, 7]: Crystal
Aspect at 0° C. with nucleation [3, 8]: Limpid
Aspect at 0° C. with nucleation [3, 10]: Limpid
Aspect at 0° C. with nucleation [3, 11]: Limpid
Aspect at 0° C. with nucleation [3, 14]: Limpid
Aspect at 0° C. with nucleation [3, 15]: Limpid

CCCCC(CC)COC(=O)C(=O)N(C)C (centres unmarked) [Compound 3, 2-ethyl-hexyl 2-(dimethylamino)-2-oxoacetate]
Aspect at 25° C. [1, 4]: Limpid
Aspect at 25° C. [1, 16]: Limpid
Aspect at 25° C. [1, 6]: Limpid
Aspect at 25° C. [1, 7]: Limpid
Aspect at 25° C. [1, 8]: Limpid
Aspect at 25° C. [1, 9]: Limpid
Aspect at 25° C. [1, 11]: Limpid
Aspect at 25° C. [1, 12]: Limpid
Aspect at 25° C. [1, 14]: Limpid
Aspect at 25° C. [1, 15]: Limpid
Aspect at 0° C. [2, 4]: Limpid
Aspect at 0° C. [2, 16]: Limpid
Aspect at 0° C. [2, 6]: Limpid
Aspect at 0° C. [2, 7]: Crystal
Aspect at 0° C. [2, 8]: Limpid
Aspect at 0° C. [2, 9]: Crystal
Aspect at 0° C. [2, 11]: Limpid
Aspect at 0° C. [2, 12]: Crystal
Aspect at 0° C. [2, 14]: Limpid
Aspect at 0° C. [2, 15]: Limpid
Aspect at 0° C. with nucleation [3, 4]: Limpid
Aspect at 0° C. with nucleation [3, 16]: Limpid
Aspect at 0° C. with nucleation [3, 6]: Limpid
Aspect at 0° C. with nucleation [3, 8]: Crystal
Aspect at 0° C. with nucleation [3, 11]: Limpid
Aspect at 0° C. with nucleation [3, 14]: Limpid
Aspect at 0° C. with nucleation [3, 15]: Limpid

CCCCCCCCCCOC(=O)C(=O)N(C)C [Compound 4, n-decyl 2-(dimethylamino)-2-oxoacetate]
Aspect at 25° C. [1, 4]: Limpid
Aspect at 25° C. [1, 16]: Limpid
Aspect at 25° C. [1, 6]: Limpid
Aspect at 25° C. [1, 8]: Limpid
Aspect at 25° C. [1, 11]: Limpid
Aspect at 25° C. [1, 14]: Limpid
Aspect at 0° C. [2, 4]: Limpid
Aspect at 0° C. [2, 16]: Crystal
Aspect at 0° C. [2, 6]: Limpid
Aspect at 0° C. [2, 8]: Crystal
Aspect at 0° C. [2, 11]: Crystal
Aspect at 0° C. [2, 14]: Limpid
Aspect at 0° C. with nucleation [3, 4]: Limpid
Aspect at 0° C. with nucleation [3, 6]: Limpid
Aspect at 0° C. with nucleation [3, 14]: Limpid
